According to patent US20230348453A1, “HALOGENATED-HETEROARYL AND OTHER HETEROCYCLIC KINASE INHIBITORS, AND USES THEREOF” (iOmx Therapeutics AG, priority 2020, published 2023):

Tests used:
[1] = in vitro; conditions: dog, MDCK, MDCK-wild type cells
[2] = molecular target: T1, RET (Homo sapiens (Human), UniProt P07949); test: biochemical; conditions: read-out: RET residual activity (%) at 1 μM, 1 μM
[3] = Screening PK in mice after 30 mg/kg po; conditions: mouse, in vivo
[4] = tested on: K562 CML cells; conditions: 10 mg/kg/day; cited from earlier work
[5] = cited from earlier work
[6] = human, in vivo; cited from earlier work
[7] = tested on: KU812 tumours; conditions: 50 mg/kg/day for 5 days; cited from earlier work
[8] = molecular target: hERG potassium channel (Homo sapiens (Human), UniProt Q12809); conditions: cited from earlier work
[9] = molecular target: HCK (Homo sapiens (Human), UniProt P08631); assay type: biochemical; conditions: Kinase Profiler
[10] = molecular target: MDR1 (P-gp) (Homo sapiens (Human), UniProt P08183); test: in vitro; conditions: dog, MDCK-MDR1, MDCK-MDR1 cells
[11] = molecular target: T1, RET
[12] = Full pharmacokinetic study in mice; conditions: mouse, in vivo
[13] = in vitro; conditions: mouse, microsomes
[14] = microsomes
[15] = in vitro; conditions: human, microsomes
[16] = microsomes; remark: listed apart in the source
[17] = Murine plasma protein binding; conditions: Table 5A
[18] = Human plasma-protein binding; conditions: Table 5A
[19] = molecular target: SIK3 (Homo sapiens (Human), UniProt Q9Y2K2); conditions: read-out: SIK3 IC50
[20] = molecular target: SIK1 (Homo sapiens (Human), UniProt P57059); conditions: read-out: SIK1 IC50
[21] = molecular target: SRC (GST-HIS-tag) (Homo sapiens (Human), UniProt P12931); assay type: biochemical
[22] = molecular target: SIK2 (Homo sapiens (Human), UniProt Q9H0K1); conditions: read-out: SIK2 IC50
[23] = molecular target: ABL1 wt (Homo sapiens (Human), UniProt P00519); assay type: biochemical
Sequence of ABL1 wt (P00519 118-535 limits assumed): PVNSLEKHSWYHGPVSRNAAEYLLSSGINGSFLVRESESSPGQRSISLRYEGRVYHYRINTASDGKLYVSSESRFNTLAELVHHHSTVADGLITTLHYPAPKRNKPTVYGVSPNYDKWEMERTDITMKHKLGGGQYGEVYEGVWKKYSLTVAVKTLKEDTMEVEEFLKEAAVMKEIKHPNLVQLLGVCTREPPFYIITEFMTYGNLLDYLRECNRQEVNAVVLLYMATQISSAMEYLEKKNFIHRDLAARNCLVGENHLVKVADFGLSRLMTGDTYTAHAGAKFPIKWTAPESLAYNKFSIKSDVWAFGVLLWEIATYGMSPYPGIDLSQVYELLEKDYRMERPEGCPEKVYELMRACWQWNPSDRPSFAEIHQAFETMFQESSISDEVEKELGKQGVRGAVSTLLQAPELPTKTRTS

T1 sequence (P07949 29-1114 limits assumed): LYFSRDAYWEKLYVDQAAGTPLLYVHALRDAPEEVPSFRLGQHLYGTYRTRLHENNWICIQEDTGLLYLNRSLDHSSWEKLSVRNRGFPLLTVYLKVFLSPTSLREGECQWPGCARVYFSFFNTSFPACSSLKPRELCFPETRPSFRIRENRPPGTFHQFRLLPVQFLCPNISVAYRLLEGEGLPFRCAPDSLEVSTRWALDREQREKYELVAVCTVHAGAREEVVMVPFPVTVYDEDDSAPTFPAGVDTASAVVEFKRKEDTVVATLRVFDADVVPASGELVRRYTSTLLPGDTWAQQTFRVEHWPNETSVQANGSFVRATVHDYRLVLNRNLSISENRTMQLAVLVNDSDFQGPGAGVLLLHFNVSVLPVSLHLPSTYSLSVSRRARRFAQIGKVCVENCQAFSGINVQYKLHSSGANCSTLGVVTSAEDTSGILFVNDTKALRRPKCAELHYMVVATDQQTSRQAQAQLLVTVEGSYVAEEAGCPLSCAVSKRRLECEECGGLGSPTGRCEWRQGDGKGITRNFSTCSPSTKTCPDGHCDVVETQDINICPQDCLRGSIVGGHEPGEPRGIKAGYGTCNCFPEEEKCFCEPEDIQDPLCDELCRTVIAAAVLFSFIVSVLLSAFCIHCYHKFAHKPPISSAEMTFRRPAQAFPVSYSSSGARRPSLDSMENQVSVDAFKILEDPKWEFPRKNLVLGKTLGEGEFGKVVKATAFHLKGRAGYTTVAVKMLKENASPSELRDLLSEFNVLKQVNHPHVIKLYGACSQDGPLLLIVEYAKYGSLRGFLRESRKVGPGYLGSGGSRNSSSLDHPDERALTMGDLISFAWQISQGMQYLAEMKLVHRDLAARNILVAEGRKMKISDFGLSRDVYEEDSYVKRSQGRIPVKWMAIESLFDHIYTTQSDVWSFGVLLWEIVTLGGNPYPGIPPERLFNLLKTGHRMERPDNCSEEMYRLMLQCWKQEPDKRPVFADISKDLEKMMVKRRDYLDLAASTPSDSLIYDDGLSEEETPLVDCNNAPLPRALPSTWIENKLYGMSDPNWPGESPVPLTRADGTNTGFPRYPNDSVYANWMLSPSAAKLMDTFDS

Question: For `Cc1nc(Nc2ncc(C(=O)Nc3c(C)cccc3Cl)s2)cc(N2CCN(CCO)CC2)n1` [Compound A8, N-(2-chloro-6-methylphenyl)-2-((6-(4-(2-hydroxyethyl)piperazin-1-yl)-2-methylpyrimidin-4-yl)amino)thiazole-5-carboxamide], which Papp ([1]; Mean Papp A > B (10^−6 cm/s)) is on record?
Answer: The Papp was 21 ×10⁻⁶ cm/s.

Question: What about the Papp ([1]; Mean Papp B > B (10^−6 cm/s)) of the same compound?
Answer: The Papp was 49 ×10⁻⁶ cm/s.

Question: What about the remaining activity at 1 µM [2] of the same compound?
Answer: Its remaining activity at 1 µM is < 40%.

Question: And the “Cmax after 2 h” value [3]?
Answer: Its value is 550 ng/mL.

Question: And the “survival of mice inoculated intracranially with K562 CML cells” value [4]?
Answer: The value was “increased survival”.

Question: And the “severe gastrointestinal haemorrhage, including fatalities” value ([5]; all clinical studies)?
Answer: The value was 4 % of patients.

Question: What about the “cardiomyopathy, heart failure congestive, diastolic dysfunction, fatal myocardial infarction, and left ventricular dysfunction” value ([5]; human, in vivo) of the same compound?
Answer: Its value is 1.6 % of patients.

Question: What about the “patients with cardiomyopathy, heart failure congestive, diastolic dysfunction, fatal myocardial infarction, and left ventricular dysfunction” value [6] of the same compound?
Answer: The value was 1.6%.

Question: And the “outcome in mice bearing large KU812 tumours” value [7]?
Answer: Its value is “curative”.

Question: What about the “inhibition of hERG currents at 3 uM” value [8] of the same compound?
Answer: Its value is “about 6%”.

Question: And the “inhibition of hERG currents at 10 uM” value [8]?
Answer: The value was ~36%.

Question: And the HCK residual activity [9]?
Answer: The HCK residual activity was “less than 1%”.

Question: What about the Papp [10] of the same compound?
Answer: The Papp was 105 ×10⁻⁶ cm/s.

Question: And the Papp ([10]; Mean Papp A > B (10^−6 cm/s))?
Answer: The Papp was 2.4 ×10⁻⁶ cm/s.

Question: And the “RET residual activity (%) at 1 μM” value [11]?
Answer: Its value is 39%.

Question: What about the “Cmax (ng/ml), Total” value [12] of the same compound?
Answer: Its value is 550 ng/mL.

Question: Which results are given for `Cc1nc(Nc2ncc(C(=O)Nc3c(C)nn(C)c3C)s2)cc(N2CCN(CCO)CC2)n1` [Compound C8, 2-((6-(4-(2-hydroxyethyl)piperazin-1-yl)-2-methylpyrimidin-4-yl)amino)-N-(1,3,5-trimethyl-1H-pyrazol-4-yl)thiazole-5-carboxamide]?
Answer: half-life [13]: > 1.67 h; Mouse liver microsomal stability, Intrinsic clearance (L/min/mg) [14]: < 14 µL/min/mg; half-life [15]: > 1.67 h; Human liver microsomal stability, Intrinsic clearance [16]: < 14 µL/min/mg; Murine plasma protein binding, Percentage unbound (%) [17]: 62%; Human plasma-protein binding, Percentage unbound (%) [18]: 5%; Kinetic solubility: 189 µM; IC50 [19]: 9.73 µM

Question: Which IC50 [20] does the source give for `Cc1nc(Nc2ncc(C(=O)Nc3c(C)noc3C)s2)cc(N2CCN(CCO)CC2)n1` [Compound C9] here?
Answer: The IC50 was 0.169 µM.

Question: And the IC50 [21]?
Answer: Its IC50 is 0.00644 µM.

Question: What about the “Mouse liver microsomal stability, Intrinsic clearance (L/min/mg)” value [14] of the same compound?
Answer: Its value is <14.

Question: And the “Mouse liver microsomal stability, % Remaining at 40 min (%)” value ([14]; 40 min)?
Answer: Its value is 83%.

Question: And the IC50 [22]?
Answer: The IC50 was 0.232 µM.

Question: And the “Human liver microsomal stability, Intrinsic clearance” value [16]?
Answer: Its value is <1.4e+07 µL/min/mg.

Question: What about the “Human liver microsomal stability, % Remaining at 40 min (%)” value ([16]; 40 min) of the same compound?
Answer: Its value is 89%.

Question: What about the IC50 [23] of the same compound?
Answer: Its IC50 is 0.0274 µM.

Question: What about the “Murine plasma protein binding, Percentage unbound (%)” value [17] of the same compound?
Answer: Its value is 44%.

Question: What about the “Human plasma-protein binding, Percentage unbound (%)” value [18] of the same compound?
Answer: The value was 6%.

Question: And the IC50 [19]?
Answer: Its IC50 is 0.8 µM.
